ChEMBL document CHEMBL5046290, “Design, Synthesis, and Preclinical Profiling of GSK3739936 (BMS-986180), an Allosteric Inhibitor of HIV-1 Integrase with Broad-Spectrum Activity toward 124/125 Polymorphs” (J Med Chem, 2022)

Assays:
sodium channel = experiment: Inhibition of sodium channel (unknown origin) at 10 uM; format: toxicity; conditions: human
CYP [1] = experiment: Half life in monkey assessed as CYP mediated metabolism in presence of […] by phase I metabolic oxidation assay; format: ADME, Macaca mulatta; conditions: rhesus monkey
[2] = Cmax in Sprague-Dawley rat at 5 mg/kg, po by LC-MS/MS analysis; format: ADME, organism-based; parameters: route oral, dose 5 mg/kg; conditions: in vivo
[3] = AUC in CD-1 mouse at 5 mg/kg, po by LC-MS/MS analysis; format: ADME, organism-based; parameters: dose 5 mg/kg; conditions: in vivo
[4] = Toxicity in rat assessed as histological changes in lymph node at 500 mg/kg/day; format: organism-based; conditions: in vivo
[5] = tested on: Human immunodeficiency virus 1; experiment: Antiviral activity against recombinant HIV1 A128T-resitant mutant […] infected in human MT-2 cells assessed as inhibition of virus growth in presence of fetal bovine serum by measuring luciferase activity after 5 days; format: functional, organism-based; conditions: Human immunodeficiency virus 1, MT2, 120 h
L-type calcium channel = L-type calcium channel (Homo sapiens, UniProt O60840+Q01668+Q13698+Q13936); experiment: Inhibition of calcium channel, Type L (unknown origin) at 10 uM; format: toxicity
[6] = Plasma protein binding in rat; format: ADME, cell-free; conditions: read-out: PPB (converted)
Cytochrome P450 2C9 = Cytochrome P450 2C9 (Homo sapiens, UniProt P11712); experiment: Inhibition of human CYP2C9; format: ADME
[7] = Elimination half life in Cynomolgus monkey at 1 mg/kg, iv by LC-MS/MS analysis; format: ADME, organism-based, Macaca fascicularis; conditions: in vivo, read-out: beta t1/2 (converted)
[8] = Stability in pH 4 for 2 weeks at 50 degC; format: physicochemical; conditions: buffer, pH 4, 336 h
[9] = Toxicity in dog assessed as fecal change at upto 300 mg/kg, po administered as single dose; format: organism-based, Canis lupus familiaris; conditions: in vivo
[10] = Toxicity in dog assessed as vomiting at >=100 mg/kg, po administered as single dose; format: organism-based, Canis lupus familiaris; conditions: in vivo
[11] = Cytotoxicity against human MT2 cells assessed as cell viability measured after 4 days by XTT assay; format: toxicity, cell-based; conditions: time 4 day
CYP [12] = biological target: CYP (Homo sapiens, UniProt P04798+P05177+P05181+P08684+P10632+P10635+P11509+P11712+P13584+P20813+P20815+P20853+P24462+P24903+P33260+P33261+P51589+P78329+P98187+Q02928+Q08477+Q16678+Q16696+Q5TCH4+Q6VVX0+Q7Z449+Q8TAV3+Q96SQ9+Q9HB55); experiment: Half life in human assessed as CYP mediated metabolism in presence of […] by phase I metabolic oxidation assay; format: ADME, protein assay
[13] = Stability in pH 7.4 for 2 weeks at 50 degC; format: physicochemical; conditions: buffer, pH 7.4, 336 h
[14] = Toxicity in rat at 50 to 500 mg/kg in cannulated jugular vein; format: organism-based; conditions: in vivo, iv, dose 50-500 mg/kg
[15] = Toxicity in rat assessed as maximum tolerated dose; conditions: in vivo
[16] = Oral bioavailability in Sprague-Dawley rat at 5 mg/kg by LC-MS/MS analysis; format: ADME, organism-based; conditions: in vivo
[17] = Toxicity in rat assessed as change in parathyroid gland at 500 mg/kg/day; format: organism-based; conditions: in vivo
[18] = Toxicity in rat assessed as distended stomach at 500 mg/kg/day; format: organism-based; conditions: in vivo
[19] = Volume of distribution at steady state in CD-1 mouse at 1 mg/kg, iv by LC-MS/MS analysis; format: ADME, organism-based; conditions: in vivo, read-out: Vdss
[20] = Clearance in Cynomolgus monkey at 1 mg/kg, iv by LC-MS/MS analysis; format: ADME, organism-based, Macaca fascicularis; conditions: in vivo
[21] = Oral bioavailability in cynomolgus monkey at 2 mg/kg by LC-MS/MS analysis; format: ADME, organism-based, Macaca fascicularis; conditions: in vivo
[22] = Toxicity in rat assessed as histological changes in adrenal gland at 500 mg/kg/day; format: organism-based; conditions: in vivo
[23] = Toxicity in rat assessed as histological changes in thymus at 500 mg/kg/day; format: organism-based; conditions: in vivo
[24] = tested on: Human immunodeficiency virus 1; experiment: Antiviral activity against recombinant HIV1 NLRep-Rluc harbouring polymorphic NA infected in human MT-2 cells assessed as inhibition of virus growth in presence of fetal bovine serum by measuring luciferase activity after 5 days; format: functional, organism-based; conditions: Human immunodeficiency virus 1, NLRep, MT2, 120 h
[25] = tested on: Human immunodeficiency virus 1; experiment: Antiviral activity against recombinant HIV1 NLRep-Rluc harbouring polymorphic AT infected in human MT-2 cells assessed as inhibition of virus growth in presence of fetal bovine serum by measuring luciferase activity after 5 days; format: functional, organism-based; conditions: Human immunodeficiency virus 1, NLRep, MT2, 120 h
[26] = Clearance in Beagle dog at 1 mg/kg, iv by LC-MS/MS analysis; format: ADME, organism-based, Canis lupus familiaris; conditions: in vivo
[27] = Tmax in Beagle dog at 2 mg/kg, po by LC-MS/MS analysis; format: ADME, organism-based, Canis lupus familiaris; conditions: in vivo
[28] = Elimination half life in Sprague-Dawley rat at 1 mg/kg, iv by LC-MS/MS analysis; format: ADME, organism-based; conditions: in vivo, read-out: beta t1/2 (converted)
UGT = experiment: Metabolic stability assessed as rat UGT-mediated metabolism by measuring half life by phase II UGT conjugation assay; format: ADME
[29] = Toxicity in rat assessed as histological changes in bone marrow at 500 mg/kg/day; format: organism-based; conditions: in vivo
[30] = Stability in pH 1 for 2 days at 50 degC; format: physicochemical; conditions: buffer, pH 1, 48 h; time 2 day
Cytochrome P450 3A4 = Cytochrome P450 3A4 (Homo sapiens, UniProt P08684); experiment: Inhibition of human CYP3A4; format: ADME
[31] = Tmax in Sprague-Dawley rat at 5 mg/kg, po by LC-MS/MS analysis; format: ADME, organism-based; conditions: in vivo
Cytochrome P450 2C8 = biological target: T1, Cytochrome P450 2C8 (Homo sapiens, UniProt P10632); experiment: Inhibition of human CYP2C8; format: ADME
T1 sequence (P10632 whole entry): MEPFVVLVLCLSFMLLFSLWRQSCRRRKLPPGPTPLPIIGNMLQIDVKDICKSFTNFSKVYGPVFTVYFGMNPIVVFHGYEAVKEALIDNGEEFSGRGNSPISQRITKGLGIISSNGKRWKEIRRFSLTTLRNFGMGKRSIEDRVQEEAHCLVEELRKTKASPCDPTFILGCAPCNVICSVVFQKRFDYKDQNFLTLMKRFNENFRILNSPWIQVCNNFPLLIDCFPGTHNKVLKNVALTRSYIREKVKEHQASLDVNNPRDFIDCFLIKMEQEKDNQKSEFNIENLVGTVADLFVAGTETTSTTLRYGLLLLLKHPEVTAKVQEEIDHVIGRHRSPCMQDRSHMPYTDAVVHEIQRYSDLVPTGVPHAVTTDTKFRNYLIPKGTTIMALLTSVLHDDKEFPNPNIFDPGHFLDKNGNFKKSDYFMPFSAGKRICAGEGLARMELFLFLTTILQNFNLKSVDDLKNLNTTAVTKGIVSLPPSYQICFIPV

Salmonella typhimurium = experiment: Genotoxicity in Salmonella typhimurium TA102 by Ames test; format: toxicity, organism-based; conditions: salmonella enterica subsp. enterica serovar typhimurium

Cytochrome P450 3A4, sequence (P08684 whole entry): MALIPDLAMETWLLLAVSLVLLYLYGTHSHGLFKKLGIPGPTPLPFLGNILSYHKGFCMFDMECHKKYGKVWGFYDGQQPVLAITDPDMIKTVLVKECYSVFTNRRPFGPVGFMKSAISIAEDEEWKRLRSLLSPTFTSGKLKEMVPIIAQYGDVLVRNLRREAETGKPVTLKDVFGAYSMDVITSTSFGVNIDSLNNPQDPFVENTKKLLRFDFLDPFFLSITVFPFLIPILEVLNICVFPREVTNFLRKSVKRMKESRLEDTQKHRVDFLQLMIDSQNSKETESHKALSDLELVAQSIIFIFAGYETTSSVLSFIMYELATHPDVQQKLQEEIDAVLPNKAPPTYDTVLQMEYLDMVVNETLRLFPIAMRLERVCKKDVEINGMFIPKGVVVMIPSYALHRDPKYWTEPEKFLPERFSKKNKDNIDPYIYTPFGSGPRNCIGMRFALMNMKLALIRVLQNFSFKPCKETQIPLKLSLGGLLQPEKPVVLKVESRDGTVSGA
Cytochrome P450 2C9, sequence (P11712 whole entry): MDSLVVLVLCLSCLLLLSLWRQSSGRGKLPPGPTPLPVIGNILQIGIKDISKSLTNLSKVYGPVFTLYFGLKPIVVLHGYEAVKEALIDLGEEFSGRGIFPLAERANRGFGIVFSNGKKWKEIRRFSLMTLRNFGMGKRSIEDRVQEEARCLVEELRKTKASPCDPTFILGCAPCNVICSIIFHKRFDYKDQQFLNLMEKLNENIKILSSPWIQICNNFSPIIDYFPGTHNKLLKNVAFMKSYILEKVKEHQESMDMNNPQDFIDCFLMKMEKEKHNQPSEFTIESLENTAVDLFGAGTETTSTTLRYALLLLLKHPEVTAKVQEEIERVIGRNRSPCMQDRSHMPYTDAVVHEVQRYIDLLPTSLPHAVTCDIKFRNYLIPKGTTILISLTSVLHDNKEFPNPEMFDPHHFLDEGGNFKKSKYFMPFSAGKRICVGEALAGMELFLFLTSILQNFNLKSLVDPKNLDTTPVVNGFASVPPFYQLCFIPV

What does the source list for Cc1nc(C)c([C@H](OC(C)(C)C)C(=O)O)c(N2CCC(C)(C)CC2)c1-c1ccc(OCCc2ccc(F)cc2)cc1?
inhibition at 10 µM (sodium channel): 79%; half-life (CYP [1]): 0.983 h; Cmax [2]: 2760 nM; AUC [3]: 24.5 µM·h; Activity [4]: Toxic; EC50 [5]: 363 nM; inhibition at 10 µM (L-type calcium channel): 96%; fraction unbound [6]: 0.19; IC50 (Cytochrome P450 2C9): ≥ 24300 nM; half-life [7]: 2.4 h; Stability [8]: Stable; Activity [9]: Toxic; Activity [10]: Toxic; CC50 at 96 h [11]: ≥ 33500 nM; half-life (CYP [12]): 1.42 h; Stability [13]: Stable; Activity [14]: Non-Toxic; MTD [15]: 50 mg/kg/day; bioavailability [16]: 52%; Activity [17]: Toxic; Activity [18]: Toxic; Vd [19]: 2.4 L/kg; clearance [20]: 14.5 mL/min/kg; bioavailability [21]: 54%; Activity [22]: Toxic; Activity [23]: Toxic; EC50 [24]: 3.8 nM; EC50 [25]: 5.1 nM; clearance [26]: 2.9 mL/min/kg; Tmax [27]: 2 h; half-life [28]: 4.3 h; half-life (UGT): ≥ 2 h; Activity [29]: Toxic; Stability [30]: Unstable; IC50 (Cytochrome P450 3A4): ≥ 24300 nM; Tmax [31]: 2.7 h; IC50 (Cytochrome P450 2C8): ≥ 24300 nM; Activity (Salmonella typhimurium): Non-Toxic
